Patent US8338380B2, “Use of the peptide RFMWMR as a therapeutic agent” (priority 2007, dated 2012)

Legend:
HIV-1IIIB = experiment: HIV-1 antiviral assay (CPE reduction, MTS); format: cell-based; details: peptide 10 micrograms per ml, 6 days post-infection
[1] = tested on: hepatitis B virus (HBV) ayw strain; experiment: HBV experimental assay system (secreted HBV DNA, TaqMan PCR); format: cell-based; details: HepG2-2.2.15 cells; peptide 10 micrograms per ml; six days; HBV DNA in supernatant
Protocol: HepG2-2.2.15 is a stable cell line containing the hepatitis B virus (HBV) ayw strain genome (ATCC Cat. No. CRL-11997). Antiviral compounds blocking any late step of viral replication such as transcription, translation, pregenome encapsidation, reverse transcription, particle assembly and release can be identified and characterized using this cell line.
HepG2-2.2.15 cells were plated in 96-well microtiter plates. After 16-24 hours the confluent monolayer of HepG2-2.2.15 cells was washed and the medium was replaced with complete medium containing test peptide—10 micrograms per ml—in duplicate. […] Three days later the culture medium was replaced with fresh medium containing the peptide. Six days following the initial administration of the peptide, the cell culture supernatants was collected, treated with pronase and DNAse and then used in a real-time quantitative TaqMan PCR assay. The PCR-amplified HBV DNA was detected in real-time by monitoring increases in fluorescence signals that result from the exonucleolytic degradation of a quenched fluorescence probe molecule that hybridizes to the amplified HBV DNA. For each PCR amplification, a standard curve was simultaneously generated using dilutions of purified HBV DNA. Antiviral activity was calculated from the reduction in HBV DNA levels (% virus control). […]

[2] = Cytotoxicity in HepG2-2.2.15 cells (dye uptake assay); format: cell-based; details: human, peptide 10 micrograms per ml, read-out: % Cell Viability
MRSA = experiment: Methicillin resistant Staphylococcus aureus (MRSA) assay; format: cell-based; details: peptide 10 micrograms per ml, macroscopic growth, read visually
Pseudomonas aeruginosa = Pseudomonas aeruginosa assay; format: cell-based; details: peptide 10 micrograms per ml, macroscopic growth, read visually
Streptococcus pneumoniae = Streptococcus pneumoniae assay; format: cell-based; details: peptide 10 micrograms per ml, macroscopic growth, read visually
A549 cells [3] = experiment: Propidium iodide cell cycle assay; format: cell-based, Human; details: 10 micrograms per ml, 24 hours, FACS
[4] = tested on: Human Peripheral Blood Mononuclear Cells (PBMC); experiment: T cell proliferation assay (PHA, 3H-thymidine); format: cell-based; details: 10 micrograms per ml, 3 days, 3H-thymidine incorporation
[5] = tested on: Human Peripheral Blood Mononuclear Cells (PBMC); experiment: B cell proliferation assay (SAC plus Interleukin-2, 3H-thymidine); format: cell-based; details: 10 micrograms per ml, 3 days, 3H-thymidine incorporation
RAW 264.7 cells = experiment: Phagocytosis assay (Fluorescein-labeled Escherichia coli); format: cell-based, Mouse; details: 10 micrograms per ml, 30 min preincubation, 60 min ingestion, flow cytometry
A549 cells [6] = experiment: Apoptosis induction assay (Annexin-5); format: cell-based, Human; details: apoptosis in A549 cells, 10 micrograms per ml, 24 hours
A549 cells [7] = experiment: Apoptosis prevention assay (C2 ceramide, Annexin-5); format: cell-based, Human; details: A549 cells pretreated 30 min with 10 micrograms per ml, then C2 ceramide
[8] = tested on: Tumor Necrosis Factor-α (TNF-α); experiment: Th1/Th2 cytokine profiling assay: TNF-α; format: cell-based; details: Ovalbumin-restimulated spleen cells of immunized Balb/c mice; 10 micrograms per ml; 72 hours
Interferon-γ (IFN-γ) = experiment: Th1/Th2 cytokine profiling assay: IFN-γ; format: cell-based; details: Ovalbumin-restimulated spleen cells of immunized Balb/c mice; 10 micrograms per ml; 72 hours
Interleukin-2 (IL-2) = experiment: Th1/Th2 cytokine profiling assay: IL-2; format: cell-based; details: Ovalbumin-restimulated spleen cells of immunized Balb/c mice; 10 micrograms per ml; 72 hours
Interleukin-4 (IL-4) = experiment: Th1/Th2 cytokine profiling assay: IL-4; format: cell-based; details: Ovalbumin-restimulated spleen cells of immunized Balb/c mice; 10 micrograms per ml; 72 hours
Interleukin-5 (IL-5) = experiment: Th1/Th2 cytokine profiling assay: IL-5; format: cell-based; details: Ovalbumin-restimulated spleen cells of immunized Balb/c mice; 10 micrograms per ml; 72 hours
TNF alpha = TNF alpha production assay in LPS-stimulated macrophages (ELISA); format: cell-based, human; details: PBMC-derived macrophages, 10 micrograms per ml 30 min before lipopolysaccharide 200 ng/ml, overnight
Text: Not stimulated macrophages served as negative background control.

[9] = tested on: Primary Human endothelial cells (HUVEC); experiment: Endothelial cell migration assay; format: cell-based; details: 10 micrograms per ml, 22 hours
HUVEC = experiment: Endothelial tube formation assay; format: cell-based, Human; details: 10 micrograms per ml, 20 hours, average tubule length
Text: Positive control was vehicle only.

HCMV strain AD169 = experiment: HCMV plaque reduction assay in MRC-5 cells; details: HCMV AD169 in MRC-5 cells; peptide 10 micrograms per ml; 7-10 days
[10] = Cytotoxicity in MRC-5 cells (CellTiter 96); details: human, MRC-5 cells (embryonal lung fibroblasts)
[11] = Cytotoxicity in CEM-SS cells (MTS) of the HIV-1 experiments; details: human

## Ac-RFMWMR-NH2 [Ac-Arg-Phe-Met-Trp-Met-Arg-NH2]
HIV-1IIIB
  % CPE reduction in HIV-1 infected CEM-SS cells: 0.0%
[1]
  % inhibition of HBV replication in HEP G2 cells: 46.8%
[2]
  viability at 144 h, 10 micrograms per ml: 100%
MRSA
  % inhibition: 0.0%
Pseudomonas aeruginosa
  % inhibition: 0.0%
Streptococcus pneumoniae
  % inhibition: 0.0%
A549 cells [3]
  Cell cycle analysis G0/G1: 59.2
  Cell cycle analysis G2/M: 8.2
  Cell cycle analysis S: 32.7
[4]
  % of PHA induced control: 109.1%
[5]
  % of SAC/IL2 induced control: 106.3%
RAW 264.7 cells
  % of control phagocytosis: 105.9%
A549 cells [6]
  % of induction: 1.2%
A549 cells [7]
  % prevention of ceramide induced apoptosis: 0.0%
[8]
  TNF-a spleen cells; TH1 response (% of control): 118.8 % of control
Interferon-γ (IFN-γ)
  INFγ spleen cells; TH1 response (% of control): 218.6 % of control
Interleukin-2 (IL-2)
  IL-2 spleen cells (% of control): 156.5 % of control
Interleukin-4 (IL-4)
  IL-4 spleen cells; TH2 response (% of control): 156.2 % of control
Interleukin-5 (IL-5)
  IL-5 spleen cells; TH2 response (% of control): 93.8 % of control
TNF alpha
  % of LPS induction: 149.8%
[9]
  % inhibition of migration: −15%
HUVEC
  % inhibition of tube formation: 23%
HCMV strain AD169
  % plaque reduction: 0.0%
[10]
  viability at 144 h: 84%
[11]
  viability at 10 micrograms per ml: 100%
